The test concerns the target T1, human GRP78 (Homo sapiens, UniProt P11021).
T1 construct: The full length human GRP78 protein recombinantly produced in Escherichia coli; 6xHis (inferred from capture on nickel-NTA chip); purchased Abcam (Cambridge, UK); host or cells: Escherichia coli
The test is described as follows: biochemical. The test is classed as binding.

Read-outs that look alike come from different tables or passages of the source. Bridge positions count the residues as written; N and C are the ends. Peptide text beside a SMILES is read from it.

As a reminder, the Kd is the constant that tells how readily two partners part at equilibrium. A higher Kd goes with a looser complex.

T1 sequence (P11021 19-654): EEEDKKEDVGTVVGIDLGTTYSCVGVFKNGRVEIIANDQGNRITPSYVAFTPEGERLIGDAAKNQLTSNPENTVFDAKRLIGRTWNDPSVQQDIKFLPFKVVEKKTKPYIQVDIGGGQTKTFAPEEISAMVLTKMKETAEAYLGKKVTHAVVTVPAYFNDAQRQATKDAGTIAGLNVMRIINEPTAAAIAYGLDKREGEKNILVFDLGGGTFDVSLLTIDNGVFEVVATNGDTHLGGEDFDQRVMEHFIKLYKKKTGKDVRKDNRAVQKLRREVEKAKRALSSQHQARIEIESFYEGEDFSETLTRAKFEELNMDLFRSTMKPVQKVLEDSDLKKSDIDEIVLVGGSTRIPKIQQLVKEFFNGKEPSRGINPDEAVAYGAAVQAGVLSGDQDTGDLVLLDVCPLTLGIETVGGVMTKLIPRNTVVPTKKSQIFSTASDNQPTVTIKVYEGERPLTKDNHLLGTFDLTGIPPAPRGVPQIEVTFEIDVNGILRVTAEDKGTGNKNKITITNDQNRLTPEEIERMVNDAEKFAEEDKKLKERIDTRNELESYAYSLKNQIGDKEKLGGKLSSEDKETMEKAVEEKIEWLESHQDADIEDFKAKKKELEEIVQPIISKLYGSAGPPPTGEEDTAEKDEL

`CC(C)C[C@@H]1NC(=O)[C@H](C)NC(=O)[C@H](C(C)C)NC(=O)[C@H]([C@@H](C)O)NC(=O)[C@@H](N)CSSC[C@@H](C(N)=O)NC(=O)[C@H](C(C)C)NC(=O)[C@H](CCCNC(=N)N)NC(=O)[C@H](C(C)C)NC(=O)[C@H](Cc2ccc(O)cc2)NC(=O)CNC(=O)CNC(=O)[C@@H]2CCCN2C1=O` [Pep42, reference compound] (H-CTVALPGGYVRVC-NH2; disulfide 1-13) showed a Kd (affinity of binding to GRP78) of 3.4 mM. Besides, the kon (read-out: Ka1 (association rate constant 1)) turned out to be 160 M⁻¹ s⁻¹. For the same compound, the koff came to 0.678 s⁻¹ (read-out: Kd1 (dissociation rate constant 1)) and 0.0116 s⁻¹ (read-out: Kd2 (dissociation rate constant 2)).
